Test results reported in patent US10052304B2, “Compositions and methods for cancer therapy” (UNIVERSITY OF IOWA RESEARCH FOUNDATION, priority 2015, dated 2018).
Entries after “also recorded” stand apart in the source; their conditions may differ.

Assays:
OPM2 = experiment: Colony formation on soft agar, OPM2 myeloma cells; type: cell-based, human; details: 1 h treatment, colonies after 10-14 days
Source text: A two-layer agar system was used, and colonies were visualized after 10-14 days.

U87 xenografts = experiment: GBM (U87) flank xenograft model; type: in vivo, mice
Description: Female 4-6 week old female athymic-nu/nu mice were purchased from Envigo (previously Harlan Laboratories) and housed in the Animal Care Facility at the University of Iowa (Iowa City, Iowa), and all procedures were approved by the University of Iowa Institutional Animal Care and Use Committee and conformed to NIH guidelines. 1×10^6 H292 or U87 cells were injected subcutaneously into the right rear flank and mice were euthanized and sacrificed when tumor length exceeded 1.5 cm in any dimension.
1×10^6 H292 or U87 cells were injected subcutaneously into the right rear flank. […] Tumors were measured every other day with Vernier calipers (volume=(length×width×(width/2)) and mice were euthanized and sacrificed when tumor length exceeded 1.5 cm in any dimension.

aconitase = experiment: Total cellular aconitase activity after ascorbate exposure; type: cell-based, human; details: 15 pmol cell^−1 ascorbate for 1 h, NSCLC cell lysates
Description: (§1) Exponentially growing cells were scraped and frozen as dry pellets until assayed for total activity. Aconitase activity was measured as the rate of appearance of NADPH (at 340 nm; Beckman DU 800 spectrophotometer, Brea, Calif.) for 45 min during the reaction of 200 μg total sample protein with 200 μM NADP^+ and 10 U isocitrate dehydrogenase as previously described (Case et al., 2011). Maximal ETC complex activity was measured as previously described (Birch-Machin et al., 1994). Complex I activity was quantified as the rate of rotenone-inhibitable NADH oxidation (320 nm; c=6.22 mM^−1 cm^−1). Complex II activity as the difference in the rate of DCIP reduction in the presence and absence of succinate (at 600 nm; ε=19.1 mM^−1 cm^−1). Complex IV activity was assayed as the rate of oxidation of cytochrome c ([…]; ε=19.6 mM^−1 cm^−1). Rates of activities were normalized to total protein by Lowry.
Exponentially growing cells were scraped and frozen as dry pellets until assayed for total aconitase activity adapted from as previously described (Case et al., 2011). […] Protein was quantified by the Lowry method (Lowry et al., 1951). Aconitase activity was measured as the rate of appearance of NADPH (at 340 nm; Beckman DU 800 spectrophotometer, Brea, Calif.) for 45 min during the reaction of 200 μg total sample protein with 200 μM NADP+ and 10 U isocitrate dehydrogenase.

NCI-H292 cells = experiment: Clonogenic survival assay, NCI-H292 NSCLC cells; type: cell-based, human
Description: Treatment conditions for individual experiments are as described in the figure legends and summarized in the Supplemental Experimental Procedures.
1-2×10^5 cells were plated in 60 mm cell culture dishes and grown in their respective media for 48 h before exposed to experimental conditions. […] For AdGPx1 experiments, cells were supplemented with 50 nM sodium selenite following transduction and throughout clonogenic growth. […] After treatment, cells were washed with PBS and clonogenic assay was completed in their respective media. Briefly, floating and attached cells were collected and total cells per plate were counted. An experimentally derived number of cells were plated into each well of a 6-well cell culture plate in their respective media. For HEL92.1.7 suspension cells, cells were seeded in a top layer of 0.4% (w/v) agarose to allow for quantifiable colony formation. […] Normalized survival fractions were calculated by comparing plating efficiencies of each treatment group against the control group within a given experiment.

ARP1 myeloma cells = experiment: Luciferase-labeled ARP1 myeloma xenograft, intravenous injection, NOD-SCID mice; type: in vivo; details: ascorbate 4 g/kg daily
Source text: The first model used is a luciferase labeled human myeloma cell line ARP1.

[1] = test system: advanced stage NSCLC patients; experiment: Phase II clinical trial of pharmacological ascorbate with carboplatin and paclitaxel in advanced stage NSCLC; type: in vivo, human
Description: This phase II clinical trial was registered with clinicaltrials.gov (NCT 02420314) prior to enrollment of the first subject. Newly diagnosed advanced stage NSCLC patients were invited to participate.
Whole blood was collected from patients around infusions.
(§2) We have not seen any unexpected or unusual increase in Grade 3/4 toxicities as compared to previously published literature, although it remains too early for a direct comparison. Responses to therapy were determined per RECIST 1.1 criteria (Eisenhauer et al., 2009). Currently, four of six patients have completed the trial with imaging-confirmed partial responses to therapy. […] Finally, one patient progressed with a new spinal lesion, although the target lesions are stable; this patient has been transitioned off of the trial.
as §2, with “This phase II clinical trial was registered with clinicaltrials.gov (NCT 02420314) prior to enrollment of the first subject. Newly diagnosed advanced stage NSCLC patients were invited to participate. […] We” for “We”, “a total” for “four”, “eleven subjects have been recruited to the trial, seven of which are currently evaluable for response. Five of seven” for “six”

ferritin = details: read-out: Km of ascorbate-mediated Fe^+2 release from ferritin; cited from earlier work
ETC complex II = ETC complex II activity after ascorbate exposure; type: cell-based, human; details: 15 pmol cell^−1 ascorbate for 1 h, NSCLC cell lysates
Description: as §1
Exponentially growing cells were scraped and frozen as dry pellets until assayed for protein content (Lowry) and maximal ETC complex activity as previously described (Birch-Machin et al., 1994). Briefly, dry cell pellets were resuspended in 20 mM potassium phosphate buffer and sonicated 3×10 s each. Rates of activities were normalized to total protein. Complex I activity was quantified as the rate of rotenone-inhibitable NADH oxidation (320 nm; ε=6.22 mM-1 cm-1). […]

[2] = first six patients, ascorbate 75 g twice weekly + carboplatin/paclitaxel

O=C1O[C@H]([C@@H](O)CO)C(O)=C1O [ascorbate, L-ascorbic acid]
ascorbate dose giving complete growth inhibition (colony formation) (OPM2): ≥ 10 pmol/cell | tolerability (mouse weight) (U87 xenografts; ascorbate 4 g kg^−1 IP daily): well tolerated | overall survival (U87 xenografts; ascorbate 4 g kg^−1 IP daily + 12 Gy IR/2 fractions + weekly 2.5 mg kg^−1 TMZ): significantly increased overall survival | aconitase activity (aconitase): inactivation | sensitization to carboplatin + IR (clonogenic survival) (NCI-H292 cells; 1 h ascorbate + 5 μM carboplatin + 2 Gy IR vs Carbo+IR alone): significantly increased sensitivity to Carbo+IR; also recorded: selectively sensitized | clonogenic survival / cell killing (NCI-H292 cells; ascorbate alone, 1 h exposure): more clonogenic cell killing in NSCLC cell lines than chemotherapy plus radiation; also recorded: dose-dependent clonogenic cell killing | tumor growth rate (ARP1 myeloma cells): significantly decreased tumor growth rate | decrease of mean tumor fluorescent intensity vs control (ARP1 myeloma cells; approximately 15 days): 59% | patient plasma ascorbate level ([1]; after 75 g IV infusions): 16.4 ± 0.5 mM | patients with imaging-confirmed partial responses (RECIST 1.1) ([1]; ascorbate + carboplatin/paclitaxel, evaluable patients to date): four of six; also recorded: Five of seven | disease control rate [1, 2]: 83% | objective response rate [1, 2]: 67% | grade 3/4 toxicities attributed to ascorbate ([1]; through 134 total infusions): no grade 3/4 toxicities attributed to ascorbate | Km (ferritin): 1300 µM | ETC complex II activity (ETC complex II): inactivation
